From publication PMC4237514, “Novel amino-β-lactam derivatives as potent cholesterol absorption inhibitors” (European Journal of Medicinal Chemistry, 2014)

Molecular target: T1, human NPC1L1 (Homo sapiens, UniProt Q9UHC9)
T1 construct: expressed in transfected cells
T1 sequence (Q9UHC9 22-1359): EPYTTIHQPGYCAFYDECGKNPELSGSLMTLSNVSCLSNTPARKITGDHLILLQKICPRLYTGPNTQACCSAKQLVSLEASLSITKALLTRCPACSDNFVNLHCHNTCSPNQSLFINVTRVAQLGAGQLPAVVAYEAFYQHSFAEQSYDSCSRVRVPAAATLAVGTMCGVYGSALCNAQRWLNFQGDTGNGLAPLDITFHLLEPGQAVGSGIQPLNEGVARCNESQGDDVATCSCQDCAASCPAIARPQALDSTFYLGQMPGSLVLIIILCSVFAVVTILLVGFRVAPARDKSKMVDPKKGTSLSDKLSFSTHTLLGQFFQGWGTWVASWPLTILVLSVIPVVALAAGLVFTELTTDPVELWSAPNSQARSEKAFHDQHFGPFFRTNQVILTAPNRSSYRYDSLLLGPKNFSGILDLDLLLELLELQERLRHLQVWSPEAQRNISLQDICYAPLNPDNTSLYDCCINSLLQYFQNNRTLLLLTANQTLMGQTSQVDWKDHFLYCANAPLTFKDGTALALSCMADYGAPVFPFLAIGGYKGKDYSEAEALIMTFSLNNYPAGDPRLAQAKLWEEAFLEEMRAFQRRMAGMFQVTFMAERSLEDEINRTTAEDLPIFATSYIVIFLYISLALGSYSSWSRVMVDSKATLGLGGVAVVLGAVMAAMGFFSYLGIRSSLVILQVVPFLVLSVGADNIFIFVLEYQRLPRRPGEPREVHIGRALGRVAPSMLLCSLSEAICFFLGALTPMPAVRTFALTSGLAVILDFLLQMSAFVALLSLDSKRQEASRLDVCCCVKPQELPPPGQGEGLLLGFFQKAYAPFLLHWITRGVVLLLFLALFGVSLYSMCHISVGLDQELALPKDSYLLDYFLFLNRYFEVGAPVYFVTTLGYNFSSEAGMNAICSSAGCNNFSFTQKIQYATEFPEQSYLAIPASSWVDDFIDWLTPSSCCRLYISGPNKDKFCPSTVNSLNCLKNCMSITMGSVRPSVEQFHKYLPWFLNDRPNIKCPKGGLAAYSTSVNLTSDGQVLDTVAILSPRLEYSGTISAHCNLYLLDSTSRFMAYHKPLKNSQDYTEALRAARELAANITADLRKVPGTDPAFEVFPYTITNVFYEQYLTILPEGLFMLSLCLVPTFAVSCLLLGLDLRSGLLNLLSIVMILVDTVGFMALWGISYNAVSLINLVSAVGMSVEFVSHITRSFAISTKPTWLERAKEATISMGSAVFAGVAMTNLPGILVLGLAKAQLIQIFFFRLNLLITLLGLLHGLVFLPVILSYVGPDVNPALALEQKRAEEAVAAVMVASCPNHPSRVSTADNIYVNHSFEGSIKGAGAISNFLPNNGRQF
Assay: In vitro [3H]cholesterol uptake assay in hNPC1L1/MDCKII cells
Assay type: cell-based
Settings: for IC50: 1 h, read-out: IC50, cholesterol uptake inhibition; for inhibition at 120 µM: MDCK-II, maximum at 120 μM, compared to untreated cells
Method: Medium A contained DMEM plus 100 units/mL penicillin and 100 μg/mL streptomycin supplemented with 5% lipoprotein-deficient serum (density > 1.21 g/mL, prepared from FCS by ultracentrifugation). Cholesterol Replenishing Medium (Medium B) was prepared according to the modified method reported by Field et al.. In brief, 0.25 mM oleic acid, 50 μM free cholesterol, 10 μM compactin, 50 μM mevalonate, 5 mM Na-taurocholate (Sigma–Aldrich, Germany), and [^3H]cholesterol (0.18 μCi/mL medium, [1,2–3H(N)] cholesterol, 1 mCi/mL (ARC Inc., USA)) in Medium A were mixed and sonicated. Following the micellar formation, compounds 1, 5, 6, 5/6 (70:30), and 6/5 (85:15) (73 mM stock solution in DMSO) were added to Medium B and vortexed to obtain the final concentrations (10, 30, 60, 90, 120, 150, 200 μM).
MDCKII wildtype and hNPC1L1/MDCKII cells were seeded in 24-well plates at a density of 5 × 10^5 cells/mL medium (500 μL medium/well) in Medium A 24 h before the treatment. Cells were washed once with PBS and incubated in Medium B (500 μL medium/well) containing micelles and tested compounds in indicated concentrations for 1 h. Following the incubation, the medium was removed and cells were washed three times with ice-cold 0.2% free fatty acid-free BSA. Cells were lysed and radioactivity in the lysate (100 μL) was determined by liquid scintillation counting. Protein concentrations of the lysates were determined with the DC Protein Assay (Bio-Rad, USA). The results were calculated as cpm/mg protein and expressed as percentage of inhibition compared to untreated cells. Each concentration was tested in duplicate in three independent experiments.

SMILES	IC50 [µM]	inhibition at 120 µM [%]	effect on cholesterol uptake (Figure S3)
O=C1[C@H](NC[C@H](O)c2ccc(F)cc2)[C@@H](c2ccc(O)cc2)N1c1ccc(F)cc1 [Compound 5]	72	50 to 55	–
O=C1[C@H](CC[C@H](O)c2ccc(F)cc2)[C@@H](c2ccc(O)cc2)N1c1ccc(F)cc1 [Compound 1, ezetimibe, reference compound]	–	–	inhibited cholesterol uptake
O=C1[C@H](NC[C@@H](O)c2ccc(F)cc2)[C@@H](c2ccc(O)cc2)N1c1ccc(F)cc1 [Compound 6, (3R,4R)-3-[(2S)-2-(4-fluorophenyl)-2-hydroxyethylamino]-1-(4-fluorophenyl)-4-(4-hydroxyphenyl)azetidin-2-one]	80	50 to 55	–
O=C1[C@H](NCC(O)c2ccc(F)cc2)[C@@H](c2ccc(O)cc2)N1c1ccc(F)cc1 (mixture of isomers) [5/6 (70:30), (3R,4R)-3-[(2R/S)-2-(4-fluorophenyl)-2-hydroxyethylamino]-1-(4-fluorophenyl)-4-(4-hydroxyphenyl)azetidin-2-one]	60	50 to 55	–
